Measured values from US20250051277A1, “DELIVERY OF THERAPEUTIC ALKALOID COMPOUNDS” (Sensorium Therapeutics, Inc., priority 2021, published 2025).
Read-outs that look alike come from different tables or passages of the source.

What was measured:
[1] = Plasma Stability Assay of Example A3, mouse plasma; details: 5 μM, 37° C., % of prodrug compound remaining
[2] = 5 μM
[3] = Plasma Stability Assay of Example A3, human plasma; details: 5 μM, 37° C., % of prodrug compound remaining
[4] = 10 μM
Procedure: (§1) 50 μL aliquots of positive controls and test compounds spiked into rat or human plasma (n=2) were added to a pre-warmed plate (37° C.) and shaken at 50 rpm. At each respective time point, the reaction was stopped by adding 500 μL of acetonitrile containing internal standards (100 nM aprozolam, 200 nM caffeine, 100 nM tolbutamide). All samples were vortexed for 10 minutes, followed by centrifugation at 3,220 g for 30 minutes to precipitate proteins. 100 μL of the supernatant is transferred to a new plate. The supernatant will be diluted with ultrapure water according to the LC-MS signal response and peak shape.

[5] = 10 μM; remark: listed apart in the source
Procedure: as §1

[6] = format: physicochemical; details: SGF with pepsin, pH 1.5, 37° C., 0.5 mM
[7] = format: physicochemical; details: DI water, 25° C., 0.5 mM

COc1ccc([C@@]23CCC(OC(=O)c4cccc(C(C)(C)C)c4)=C[C@@H]2N(C)CC3)cc1OC [Compound 375, (3aS,7aS)-3a-(3,4-dimethoxyphenyl)-1-methyl-2,3,3a,4,5,7a-hexahydro-1H-indol-6-yl3-(tert-butyl)benzoate]
Mouse Plasma Prodrug (%) ([1]; 0 min): 100%
Mouse Plasma Prodrug (%) ([1]; 15 min): 11%
Mouse Plasma Prodrug (%) ([1]; 30 min): 2%
Mouse Plasma Prodrug (%) ([1]; 60 min): 0%
Mouse Plasma Prodrug (%) ([1]; 120 min): 0%
Mouse Plasma Prodrug (%) ([1]; 240 min): 0%
Mouse Plasma Compound 001 (%) ([2]; 0 min): 41.82%
Mouse Plasma Compound 001 (%) ([2]; 15 min): 45.54%
Mouse Plasma Compound 001 (%) ([2]; 30 min): 45.99%
Mouse Plasma Compound 001 (%) ([2]; 60 min): 41.28%
Mouse Plasma Compound 001 (%) ([2]; 120 min): 42.28%
Mouse Plasma Compound 001 (%) ([2]; 240 min): 29.74%
Human Plasma Prodrug (%) ([3]; 0 min): 100%
Human Plasma Prodrug (%) ([3]; 15 min): >99%
Human Plasma Prodrug (%) ([3]; 30 min): >99%
Human Plasma Prodrug (%) ([3]; 60 min): 97%
Human Plasma Prodrug (%) ([3]; 120 min): 57%
Human Plasma Prodrug (%) ([3]; 240 min): 26%

COc1ccc([C@@]23CCC(OC(=O)c4ccc(C(F)(F)F)cc4)=C[C@@H]2N(C)CC3)cc1OC [Compound 310]
Mouse Plasma Prodrug (%) ([1]; 0 min): 100.0%
Mouse Plasma Prodrug (%) ([1]; 15 min): 0.4%
Mouse Plasma Prodrug (%) ([1]; 30 min): 0.1%
Mouse Plasma Prodrug (%) ([1]; 60 min): 0.1%
Mouse Plasma Prodrug (%) ([1]; 120 min): 0.1%
Mouse Plasma Prodrug (%) ([1]; 240 min): 0.1%
Human Plasma Prodrug (%) ([3]; 0 min): 100.0%
Human Plasma Prodrug (%) ([3]; 15 min): 89.9%
Human Plasma Prodrug (%) ([3]; 30 min): 84.5%
Human Plasma Prodrug (%) ([3]; 60 min): 77.3%
Human Plasma Prodrug (%) ([3]; 120 min): 63.4%
Human Plasma Prodrug (%) ([3]; 240 min): 35.1%

COc1ccc([C@@]23CCC(OC(=O)c4ccc(C#N)cc4)=C[C@@H]2N(C)CC3)cc1OC [Compound 354, (3aS,7aS)-3a-(3,4-dimethoxyphenyl)-1-methyl-2,3,3a,4,5,7a-hexahydro-1H-indol-6-yl4-cyanobenzoate]
Mouse Plasma Prodrug (%) ([1]; 0 min): 100%
Mouse Plasma Prodrug (%) ([1]; 15 min): 5%
Mouse Plasma Prodrug (%) ([1]; 30 min): 7%
Mouse Plasma Prodrug (%) ([1]; 60 min): 5%
Mouse Plasma Prodrug (%) ([1]; 120 min): 4%
Mouse Plasma Prodrug (%) ([1]; 240 min): 0%
Mouse Plasma Compound 001 (%) ([2]; 0 min): 33.27%
Mouse Plasma Compound 001 (%) ([2]; 15 min): 32.79%
Mouse Plasma Compound 001 (%) ([2]; 30 min): 32.69%
Mouse Plasma Compound 001 (%) ([2]; 60 min): 29.45%
Mouse Plasma Compound 001 (%) ([2]; 120 min): 27.14%
Mouse Plasma Compound 001 (%) ([2]; 240 min): 20.12%
Human Plasma Prodrug (%) ([3]; 0 min): 100%
Human Plasma Prodrug (%) ([3]; 15 min): 93%
Human Plasma Prodrug (%) ([3]; 30 min): 72%
Human Plasma Prodrug (%) ([3]; 60 min): 42%
Human Plasma Prodrug (%) ([3]; 120 min): 13%
Human Plasma Prodrug (%) ([3]; 240 min): 1%

COCCOCCC(=O)OC1=C[C@@H]2N(C)CC[C@]2(c2ccc(OC)c(OC)c2)CC1 [Compound 405, (3aS,7aS)-3a-(3,4-dimethoxyphenyl)-1-methyl-2,3,3a,4,5,7a-hexahydro-1H-indol-6-yl3-(2-methoxyethoxy)propanoate]
Prodrug (%) remaining, Rat Plasma ([4]; 0 h): 100.0%
Prodrug (%) remaining, Rat Plasma ([4]; 10 min): 0.1%
Prodrug (%) remaining, Rat Plasma ([4]; 0.5 h): 0.0%
Prodrug (%) remaining, Rat Plasma ([4]; 1 h): 0.1%
Prodrug (%) remaining, Rat Plasma ([4]; 2 h): 0.0%
Prodrug (%) remaining, Rat Plasma ([4]; 4 h): 0.0%
Prodrug (%) remaining, Human Plasma ([5]; 0 h): 100.0%
Prodrug (%) remaining, Human Plasma ([5]; 10 min): >99%
Prodrug (%) remaining, Human Plasma ([5]; 0.5 h): 95.0%
Prodrug (%) remaining, Human Plasma ([5]; 1 h): 87.0%
Prodrug (%) remaining, Human Plasma ([5]; 2 h): 65.7%
Prodrug (%) remaining, Human Plasma ([5]; 4 h): 46.7%

CCCC(C)C(=O)OC1=C[C@@H]2N(C)CC[C@]2(c2ccc(OC)c(OC)c2)CC1 (stereo partly drawn) [Compound 402, (3aS,7aS)-3a-(3,4-dimethoxyphenyl)-1-methyl-2,3,3a,4,5,7a-hexahydro-1H-indol-6-yl2-methylpentanoate]
Prodrug (%) remaining, Rat Plasma ([4]; 0 h): 100.0%
Prodrug (%) remaining, Rat Plasma ([4]; 10 min): 3.5%
Prodrug (%) remaining, Rat Plasma ([4]; 0.5 h): 0.1%
Prodrug (%) remaining, Rat Plasma ([4]; 1 h): 0.0%
Prodrug (%) remaining, Rat Plasma ([4]; 2 h): 0.0%
Prodrug (%) remaining, Rat Plasma ([4]; 4 h): 0.0%
Prodrug (%) remaining, Human Plasma ([5]; 0 h): 100.0%
Prodrug (%) remaining, Human Plasma ([5]; 10 min): 11.3%
Prodrug (%) remaining, Human Plasma ([5]; 0.5 h): 2.9%
Prodrug (%) remaining, Human Plasma ([5]; 1 h): 2.1%
Prodrug (%) remaining, Human Plasma ([5]; 2 h): 1.6%
Prodrug (%) remaining, Human Plasma ([5]; 4 h): 1.1%

CCCC(CCC)C(=O)OC1=C[C@@H]2N(C)CC[C@]2(c2ccc(OC)c(OC)c2)CC1 [Compound 427, (3aS,7aS)-3a-(3,4-dimethoxyphenyl)-1-methyl-2,3,3a,4,5,7a-hexahydro-1H-indol-6-yl2-propylpentanoate]
Prodrug (%) remaining, Rat Plasma ([4]; 0 h): 100.0%
Prodrug (%) remaining, Rat Plasma ([4]; 10 min): 93.6%
Prodrug (%) remaining, Rat Plasma ([4]; 0.5 h): 73.4%
Prodrug (%) remaining, Rat Plasma ([4]; 1 h): 43.9%
Prodrug (%) remaining, Rat Plasma ([4]; 2 h): 16.0%
Prodrug (%) remaining, Rat Plasma ([4]; 4 h): 2.3%
Prodrug (%) remaining, Human Plasma ([5]; 0 h): 100.0%
Prodrug (%) remaining, Human Plasma ([5]; 10 min): >99%
Prodrug (%) remaining, Human Plasma ([5]; 0.5 h): 96.6%
Prodrug (%) remaining, Human Plasma ([5]; 1 h): 96.9%
Prodrug (%) remaining, Human Plasma ([5]; 2 h): 95.5%
Prodrug (%) remaining, Human Plasma ([5]; 4 h): 91.2%

COc1ccc([C@@]23CCC(OC(=O)c4c(C)cc(C)cc4C)=C[C@@H]2N(C)CC3)cc1OC [Compound 356, (3aS,7aS)-3a-(3,4-dimethoxyphenyl)-1-methyl-2,3,3a,4,5,7a-hexahydro-1H-indol-6-yl2,4,6-trimethylbenzoate]
Prodrug (%) remaining, Rat Plasma ([4]; 0 h): 100.0%
Prodrug (%) remaining, Rat Plasma ([4]; 10 min): >99%
Prodrug (%) remaining, Rat Plasma ([4]; 0.5 h): >99%
Prodrug (%) remaining, Rat Plasma ([4]; 1 h): >99%
Prodrug (%) remaining, Rat Plasma ([4]; 2 h): >99%
Prodrug (%) remaining, Rat Plasma ([4]; 4 h): 95.8%
Prodrug (%) remaining, Human Plasma ([5]; 0 h): 100.0%
Prodrug (%) remaining, Human Plasma ([5]; 10 min): >99%
Prodrug (%) remaining, Human Plasma ([5]; 0.5 h): >99%
Prodrug (%) remaining, Human Plasma ([5]; 1 h): >99%
Prodrug (%) remaining, Human Plasma ([5]; 2 h): >99%
Prodrug (%) remaining, Human Plasma ([5]; 4 h): >99%

COc1ccc([C@@]23CCC(OC(=O)C(c4ccccc4)c4ccccc4)=C[C@@H]2N(C)CC3)cc1OC [Compound 306, [(3aS,7aS)-3a-(3,4-dimethoxyphenyl)-1-methyl-3,4,5,7a-tetrahydro-2H-indol-6-yl]2,2-diphenylacetate]
Mouse Plasma Prodrug (%) ([1]; 0 min): 100.0%
Mouse Plasma Prodrug (%) ([1]; 15 min): 6.2%
Mouse Plasma Prodrug (%) ([1]; 60 min): 1.6%
Mouse Plasma Prodrug (%) ([1]; 120 min): 0.4%
Mouse Plasma Prodrug (%) ([1]; 240 min): 0.1%
Condition 1 Conversion (%) ([6]; time 1 min): 0%
Condition 1 Conversion (%) ([6]; time 5 min): 0%
Condition 1 Conversion (%) ([6]; time 30 min): 0%
Condition 1 Conversion (%) ([6]; time 1 h): 0%
Condition 1 Conversion (%) ([6]; time 4 h): 0%
Condition 1 Conversion (%) ([6]; time 24 h): 0%
Human Plasma Prodrug (%) ([3]; 0 min): 100.0%
Human Plasma Prodrug (%) ([3]; 15 min): 89.5%
Human Plasma Prodrug (%) ([3]; 30 min): 75.2%
Human Plasma Prodrug (%) ([3]; 60 min): 53.7%
Human Plasma Prodrug (%) ([3]; 120 min): 32.4%
Human Plasma Prodrug (%) ([3]; 240 min): 13.8%
Condition 2 Conversion (%) ([7]; time 1 min): 0%
Condition 2 Conversion (%) ([7]; time 5 min): 0%
Condition 2 Conversion (%) ([7]; time 30 min): 0%
Condition 2 Conversion (%) ([7]; time 1 h): 0%
Condition 2 Conversion (%) ([7]; time 4 h): 0%
Condition 2 Conversion (%) ([7]; time 24 h): 0%

CCC(CC)C(=O)OC1=C[C@@H]2N(C)CC[C@]2(c2ccc(OC)c(OC)c2)CC1 [Compound 426, (3aS,7aS)-3a-(3,4-dimethoxyphenyl)-1-methyl-2,3,3a,4,5,7a-hexahydro-1H-indol-6-yl2-ethylbutanoate]
Prodrug (%) remaining, Rat Plasma ([4]; 0 h): 100.0%
Prodrug (%) remaining, Rat Plasma ([4]; 10 min): 70.2%
Prodrug (%) remaining, Rat Plasma ([4]; 0.5 h): 33.2%
Prodrug (%) remaining, Rat Plasma ([4]; 1 h): 9.5%
Prodrug (%) remaining, Rat Plasma ([4]; 2 h): 0.9%
Prodrug (%) remaining, Rat Plasma ([4]; 4 h): 0.1%
Prodrug (%) remaining, Human Plasma ([5]; 0 h): 100.0%
Prodrug (%) remaining, Human Plasma ([5]; 10 min): 87.1%
Prodrug (%) remaining, Human Plasma ([5]; 0.5 h): 80.3%
Prodrug (%) remaining, Human Plasma ([5]; 1 h): 79.2%
Prodrug (%) remaining, Human Plasma ([5]; 2 h): 73.6%
Prodrug (%) remaining, Human Plasma ([5]; 4 h): 66.4%

COc1ccc([C@@]23CCC(OC(=O)CC(C)(C)C)=C[C@@H]2N(C)CC3)cc1OC [Compound 431, (3aS,7aS)-3a-(3,4-dimethoxyphenyl)-1-methyl-2,3,3a,4,5,7a-hexahydro-1H-indol-6-yl3,3-dimethylbutanoate]
Prodrug (%) remaining, Rat Plasma ([4]; 0 h): 100.0%
Prodrug (%) remaining, Rat Plasma ([4]; 10 min): 74.5%
Prodrug (%) remaining, Rat Plasma ([4]; 0.5 h): 45.7%
Prodrug (%) remaining, Rat Plasma ([4]; 1 h): 16.5%
Prodrug (%) remaining, Rat Plasma ([4]; 2 h): 2.3%
Prodrug (%) remaining, Rat Plasma ([4]; 4 h): 0.2%
Prodrug (%) remaining, Human Plasma ([5]; 0 h): 100.0%
Prodrug (%) remaining, Human Plasma ([5]; 10 min): 82.1%
Prodrug (%) remaining, Human Plasma ([5]; 0.5 h): 69.0%
Prodrug (%) remaining, Human Plasma ([5]; 1 h): 62.8%
Prodrug (%) remaining, Human Plasma ([5]; 2 h): 52.6%
Prodrug (%) remaining, Human Plasma ([5]; 4 h): 37.4%

CCCC(C)(C)C(=O)OC1=C[C@@H]2N(C)CC[C@]2(c2ccc(OC)c(OC)c2)CC1 [Compound 429, (3aS,7aS)-3a-(3,4-dimethoxyphenyl)-1-methyl-2,3,3a,4,5,7a-hexahydro-1H-indol-6-yl2,2-dimethylpentanoate]
Prodrug (%) remaining, Rat Plasma ([4]; 0 h): 100.0%
Prodrug (%) remaining, Rat Plasma ([4]; 10 min): 90.4%
Prodrug (%) remaining, Rat Plasma ([4]; 0.5 h): 83.9%
Prodrug (%) remaining, Rat Plasma ([4]; 1 h): 71.9%
Prodrug (%) remaining, Rat Plasma ([4]; 2 h): 50.8%
Prodrug (%) remaining, Rat Plasma ([4]; 4 h): 26.2%
Prodrug (%) remaining, Human Plasma ([5]; 0 h): 100.0%
Prodrug (%) remaining, Human Plasma ([5]; 10 min): >99%
Prodrug (%) remaining, Human Plasma ([5]; 0.5 h): 96.3%
Prodrug (%) remaining, Human Plasma ([5]; 1 h): 95.3%
Prodrug (%) remaining, Human Plasma ([5]; 2 h): 91.8%
Prodrug (%) remaining, Human Plasma ([5]; 4 h): 84.6%
